In patent US20080194575A1, “Treatment for non-alcoholic-steatohepatitis” (priority 2006, published 2008):

Experiments:
Assay type in all cases: in vivo, C56BL/6 mice
TNF = TNF expression in liver by Real Time RT-PCR; details: HSD 4 weeks, compound A 30 mg/kg daily subcutaneous, HSD/vehicle vs HSD/compound A (FIG. 3B)
Procedure: (§1) Animals, feeding and treatments Two groups of 8 week old male C56BL/6 mice were set under a high sucrose containing diet together with 1% Orotic acid (HSD) for 4 weeks (TD 02366, Tekland Mills) (Feldstein et al. J Hepatol, 39:978-983(2003)). All animals were purchased from Jackson Laboratories and were treated and handled following the National Academy of Sciences criteria (NIH publication 86-23 revised 1985). One group of animals received a daily subcutaneous injection of compound A at a concentration of 30 mg/kg (compound A) and the second group received vehicle with the same frequency (Vehicle). Additionally, a third group of mice was fed under a normal chow diet (control).
(§2) RNA isolation and quantitative Real Time PCR RNA from frozen liver tissue was extracted with PeqGOLD-RNAPure kit (Peqlab). First strand synthesis was performed with Oligo dT primers and reverse transcription with M-MLV Reverse Transcriptase (Invitrogen Corp.) Quantitative Real Time PCR was performed with the AbbyPrism 7300 Real-Time PCR system from Applied Biosystems by using SYBR Green Reagent (Applied biosystems). Real time reactions were performed twice in triplicates. All values were normalized to the level of GAPDH. Primer sequences are detailed in Table 1.

adiponectin = assay: Serum and liver adiponectin expression by ELISA; details: after 4 weeks of HSD, compound A 30 mg/kg daily subcutaneous
Procedure: as §1
(§3) Serum analysis Blood was taken from mice after fasting and glucose levels were measured with Ascensia Elite sensor (Bayer). Serum Insulin (Linco Research) and Adiponectin (R&D systems) levels were quantified by ELISA.

IL-6 = IL-6 expression in liver by Real Time RT-PCR; details: HSD 4 weeks, compound A 30 mg/kg daily subcutaneous, HSD/vehicle vs HSD/compound A (FIG. 3A)
Procedure: as §1, §2

Caspase-3 = Caspase-3 activity in whole liver extracts (Ac-DEVD-AMC); details: HSD 4 weeks, compound A 30 mg/kg daily subcutaneous (FIG. 6A)
Procedure: as §1
(§4) Detection of apoptosis Apoptotic cell death was determined in liver tissue by using two difference strategies. Caspase-3 activity was analysed in whole liver extracts. Proteins were extracted with the lysis buffer containing 1M Hepes, 10% CHAPS, 0.5 EDTA, 1 m DTT and 0.1 M pefa-block and further incubated with the fluorescent substrate Ac-DEVD-AMC (Biomol). The enzymatic activity was then measured at λ. excitation 390 nm and λ emission 510 nm and the result was corrected with the protein concentration. Additionally, we performed a TUNEL assay on frozen liver sections using the “In situ cell death detection Kit, POD” (Roche Diagnostics Corp.) following manufacturer's instructions.

PPARγ = PPARγ expression in liver on the mRNA and protein level; details: HSD 4 weeks
Procedure: as §1
(§5) Western blot analysis Whole liver protein extracts were obtained by using ice- cold buffer (20 mM Tris pH 7.5, 150 mM NaCl, 1 mM EGTA, 1 mM EDTA, 1% Triton X-100, 2.5 mM sodium pyrophosphate and cocktail of protease inhibitors). […]
as §2, with “Real time reactions were performed twice in triplicates. All values were normalized to the level of GAPDH. Primer sequences are detailed in Table 1.” left out

[1] = system: fatty acid translocase/CD36; assay: Fatty acid translocase/CD36 gene expression in liver by real time RT-PCR; details: HSD 4 weeks, compound A 30 mg/kg daily subcutaneous (FIG. 4E)
Procedure: as §1, §2

CPT-1 = CPT-1 mRNA expression in liver by real time RT-PCR; details: HSD 4 weeks, compound A 30 mg/kg daily subcutaneous, vs vehicle (FIG. 4B)
Procedure: as §1, §2

PPARα = PPARα expression in liver (real time RT-PCR, western blot); details: HSD 4 weeks
Procedure: as §1, §5
as §2, with “Real time reactions were performed twice in triplicates. All values were normalized to the level of GAPDH. Primer sequences are detailed in Table 1.” left out

MnSOD = MnSOD mRNA expression in liver by real time RT-PCR; details: HSD 4 weeks, compound A 30 mg/kg daily subcutaneous, vs vehicle and chow controls (FIG. 5B)
Procedure: as §1, §2

[2] = Serum analysis after fasting in HSD fed mice: blood glucose, serum insulin (insulin resistance); details: HSD 4 weeks, compound A 30 mg/kg daily subcutaneous
Procedure: as §1, §3

hepatocyte apoptosis = assay: TUNEL assay on frozen liver sections (hepatocyte apoptosis); details: HSD 4 weeks, compound A 30 mg/kg daily subcutaneous
Procedure: as §1, §4

Acyl-CoA oxidase (ACOX) = Acyl-CoA oxidase (ACOX) mRNA expression in liver by real time RT-PCR; details: HSD 4 weeks, compound A 30 mg/kg daily subcutaneous, vs vehicle (FIG. 4C)
Procedure: as §1, §2

[3] = High sucrose diet (HSD) induced obesity in mice: body weight gain and abdominal fat; details: HSD 4 weeks, compound A 30 mg/kg daily subcutaneous
Procedure: as §1

Catalase = Catalase mRNA expression in liver by real time RT-PCR; details: HSD 4 weeks, compound A 30 mg/kg daily subcutaneous, vs vehicle and chow controls
Procedure: as §1, §2

NF-κB = assay: HSD induced NF-κB activation in liver (I-κBα western blot, p65 immunohistochemistry); details: HSD 4 weeks, compound A 30 mg/kg daily subcutaneous
Procedure: as §1
(§6) Histological evaluation Livers from mice were harvested and after fixation with formaldehyde embedded in paraffin for further histological evaluation. Hematoxylin & Eosin staining was performed in liver sections and steatosis was assessed following a semiquantitative scoring system. Oil red 0 staining was performed to evidence the presence of intracellular lipds. Liver fibrosis was determined by Sirius Red which stains collagen fibres. Scoring of fibrosis was performed following the Brunt system. Additionally, immunohistochemistry (IHC) was performed on cryosections for the polyclonal anti-P65 (A) antibody, dilution 1/50 and anti-TNFα antibody, dilution 1/20 (both from Santa Cruz Biotechnology Inc.). […]

[4] = system: Cytochrome P450 2E1 (CYP2E1); assay: CYP2E1 mRNA expression in liver by real time RT-PCR; details: HSD 4 weeks, compound A 30 mg/kg daily subcutaneous (FIG. 5A)
Procedure: as §1, §2

[5] = system: HSD induced hepatic steatosis; assay: Histological evaluation of HSD induced hepatic steatosis (H&E semiquantitative score, Oil-Red-O staining); details: HSD 4 weeks
Procedure: as §1, §6

[6] = system: HSD induced liver fibrosis; assay: Liver fibrosis by Sirius red staining, Brunt score; details: HSD 4 weeks
Procedure: as §1, §6

[7] = compound A 30 mg/kg daily subcutaneous, vs HSD/vehicle

## CC(=O)N1CCN(C(=O)c2ccc(Nc3nccc(-c4ccc(Cl)cc4)n3)cc2)CC1 [compound A, 1-(4-{4-[4-(4-Chloro-phenyl)-pyrimidin-2-ylamino]-benzoyl}-piperazin-1-yl)-ethanone]
TNF
  TNF mRNA expression: upregulation of IL-6 and TNF mRNA expression was found compared to the HSD/compound A
adiponectin; vs chow controls (FIG. 3C)
  adiponectin expression in serum: no significant change in adiponectin expression
adiponectin; vs chow controls (FIG. 3D)
  adiponectin expression in liver: no significant change in adiponectin expression
IL-6
  IL-6 mRNA expression: upregulation of IL-6 and TNF mRNA expression was found compared to the HSD/compound A
Caspase-3
  caspase 3 activity: strongly reduced caspase 3 activity to a level as found in chow control mice
PPARγ; compound A 30 mg/kg daily subcutaneous (FIG. 4D)
  PPARγ mRNA expression: upregulated in livers derived from these animals
PPARγ; [7]
  PPARγ protein expression, western blot: more pronounced presence in compound A mice
[1]
  CD36 gene expression: upregulated in HSD/compound A mice
CPT-1
  CPT-1 mRNA expression: up-regulated in livers from mice that received the compound A compared to vehicle treated animals
PPARα; [7]
  PPARα protein, western blot: higher presence of PPARα in livers from HSD/compound A mice than in HSD/vehicle animals
PPARα; real time RT-PCR, compound A 30 mg/kg daily subcutaneous (FIG. 4A)
  PPARα mRNA expression: significantly higher expression in liver from HSD fed mice treated with compound A
MnSOD
  MnSOD mRNA expression: significantly higher in compound A treated animals compared to vehicle treated mice and chow controls
[2]; ELISA, vs HSD/vehicle (FIG. 1C)
  serum insulin levels: roughly significantly less blood insulin that HSD/vehicle treated animals (p=0.06)
[2]; fasted, HSD/vehicle vs HSD/compound A (FIG. 1B)
  blood glucose levels: blood glucose levels were significantly higher in this group compared to animals treated with either HSD/compound A
Hepatocyte apoptosis
  TUNEL-positive cells: increase in TUNEL-positive cells, which could be blocked using compound A
Acyl-CoA oxidase (ACOX)
  ACOX mRNA expression: up-regulated in livers from mice that received the compound A compared to vehicle treated animals
[3]; macroscopical, vs vehicle and chow control
  fat accumulation in the abdominal cavity: less amount of fat that was not significantly different compared to control chow mice
[3]; vs HSD/vehicle (FIG. 1A)
  body weight gain: significant weight gain was observed in vehicle treated mice after 4 weeks of HSD feeding compared to compound A treated mice
Catalase
  Catalase mRNA expression: significantly higher in compound A treated animals compared to vehicle treated mice and chow controls
NF-κB; lower levels in HSD/vehicle
  I-κBα levels, western blot of whole liver extracts: I-κBα was clearly present in HSD/compound A
NF-κB; strong activation in HSD/vehicle
  NF-κB activation, p65 immunohistochemistry on liver sections: stainings were practically negative in HSD/compound A
[4]
  CYP2E1 mRNA expression: reduced HSD induced upregulation of CYP2E1 and its expression was not significantly different than the chow control group
[5]; compound A 30 mg/kg daily subcutaneous
  fat deposits in liver (Oil-Red-O staining): only minor microvesicular fat dropples could be observed in some of the HSD/compound A mice analysed
[5]; compound A 30 mg/kg daily subcutaneous (FIG. 2)
  liver histology / steatosis (H&E staining): liver histology similar to chow control animals with no clear evidence of fat accumulation
[6]; compound A 30 mg/kg daily subcutaneous, HSD/vehicle score 1.6
  fibrosis score according to Brunt score: virtually zero
[6]; liver sections, compound A 30 mg/kg daily subcutaneous (FIG. 6B)
  liver collagen expression (Sirius red staining): no significant degree of collagen expression could be detected
